The text below walks through data of patent US10081633B2, “Adenylyl cyclase inhibitors, pharmaceutical compositions and method of use thereof” (priority 2016, dated 2018).

The test system of assay [1] is H9c2(2-1) myoblast cell line. The assay is described as follows: Adenylyl cyclase cell-based assay, isoproterenol-stimulated cAMP. Conditions: Rattus norvegicus; H9c2 cells, isoproterenol 5 mM. The protocol:
(§1) H9c2(2-1) myoblast cell line was obtained from ATCC (CRL-1446). Cells (10^5 cells/mL) were seeded in 24-well plates at 5×10^4 cells per well. Cells were allowed to attach over 24 hours. The cells were then washed with PBS. Serum-free DMEM supplemented with 20 mM HEPES and 0.5 mM IBMX was added and the cells were incubated at 37 deg C. for 20 minutes. An Adenylyl Cyclase inhibitor (0.001-100 μM in DMSO/water with DMSO concentration <1%) was added and the mixture was incubated at 37 deg C. for 10 minutes. Forskolin (50 μM in DMSO/water with DMSO concentration <1%) was added and the mixture was incubated at 37 deg C. for 10 minutes. As an alternative to forskolin, isoproterenol (5 mM in DMSO/water with DMSO concentration <1%) was added and the mixture was incubated at 37 deg C. for 15 minutes. The media was removed and the cells were lysed by addition of 0.1 M hydrochloric acid (200 μL) 0 deg C. Lysed mixtures were maintained at 0 deg C. for 10-20 minutes and the plates were then centrifuged at 3,000×g for 5 minutes. cAMP levels in the supernatant were measured using the ThermoScientific cAMP competitive ELISA (EMSCAMPL) kit with samples acetylated in glass or polypropylene tubes.

Assay [2] concerns Mouse Ischemia and Reperfusion Model. As to the kind of experiment: Mouse ischemia and reperfusion model, infarct size. The format is in vivo. Conditions: mice; 30 min CAO, 24 hr CAR; i.v. infusion 0.06 mg/kg delivered at CAR; vehicle 33%. The protocol:
3-4-month-old male CS7BL/6 mice purchased from Jack-son Laboratory were anesthetized by an injection of 2% 2,2,2-tribromomethanol ([…] i.p.; Aldrich Chemical, St. Louis, Mo.). The mice were then orally intubated and mechanically ventilated. The heart was accessed via a thoracotomy at the fourth intercostals space and 7-0 silk suture passed under the left anterior descending coronary artery (LAD) at the point where it emerged from under the left atrial flap. Myocardial ischemia was achieved by occluding the LAD against a 22-gauge J-shaped stainless-steel probe and verified by visually noting the regional akinesis and blanching of the left ventricle. The chest was closed in layers, with the long end of the probe remaining outside the chest wall, allowing the animals to be removed from the ventilator. After 30 min. of ischemia, reperfusion was initiated by carefully pulling the probe out from the ligature and then removing it from the chest cavity. Following the surgical procedure, the mice were allowed to recover on a warmed surface, with supplemental oxygen delivered from a nose cone. I/R were verified by three lead electrocardiograms, which were obtained preoperatively, at the end of the ischemic interval and immediately after the initiation of reperfusion. Mice fully recovered from the surgical procedure were returned to standard animal housing conditions. […]

Assay [3] concerns the target T1, type V adenylyl cyclase (Homo sapiens, UniProt O95622).
T1 construct: from tissue; host or cells: heart (cardiomyocyte) membrane preparations from transgenic mice overproducing type V adenylyl cyclase
As to the kind of experiment: Adenylyl cyclase membrane assay, type V (cAMP ELISA). The format is biochemical, mouse. Conditions: cardiomyocyte membrane preparations from transgenic mice; forskolin 50 μM. The protocol: (§2) Compounds were assayed for their ability to attenuate cyclic AMP (cAMP) production in cardiomyocyte membrane preparations isolated from transgenic mice. Transgenic mice were separately bred to overproduce type V adenylyl cyclase, type VI adenylyl cyclase and type II adenylyl cyclase. cAMP levels were determined using a Cyclic AMP Competitive ELISA kit purchased from ThermoFischer Scientific (Cat# EMSCAMPL).
(§3) Buffer A (pH 8) was prepared comprising final concentrations of the following: 50 mM Tris, 1 mM EGTA, 1 mM EDTA, 1 mM DTT, 100 mM sucrose, 20 μg/mL TPCK (protease inhibitor), 20 μg/mL TLCK (protease inhibitor), 1 mM PMSF (protease inhibitor), 10 μg/mL leupeptin (protease inhibitor) and 10 μg/mL aprotinin (protease inhibitor).
(§4) Buffer B (pH 8) was prepared comprising final concentrations of the following: 50 mM Tris, 1 mM EDTA, 100 mM sucrose, 0.2 mM PMSF (protease inhibitor), 2 μg/mL leupeptin (protease inhibitor) and 2 μg/mL aprotinin (protease inhibitor).
Hearts were surgically excised from transgenic mice. Each isolated heart was treated with 3-4 mL of buffer A and cooled to 0 deg C. for 5 minutes. Treated hearts were homogenized for 10 seconds using a Polytron homogenizer cooled to 0 deg C. and set to speed 6. Homogenized hearts were centrifuged at 500×g at 4 deg C. for 10 minutes. Supernatants were transferred to ultracentrifuge tubes and centrifuged at 35,000 rpm at 4 deg C. for 40 minutes. Isolated pellets were combined with buffer B (500 μL) and sonicated to a suspension. Protein concentration was determined using a commercial Bradford assay kit. Membrane preparations were stored at −80 deg C.
Buffer R (pH 8) was prepared comprising final concentrations in water of the following: HEPES (20 mM), magnesium chloride (5 mM), EDTA (0.5 mM), ATP (0.1 mM), phospho creatinine (1 mM), creatinine phosphokinase (8 units/mL), IBMX (200 μM), forskolin (50 μM) or control (DMSO in water).
Inhibitor solutions were prepared by dilution of stock solutions of inhibitors (10 mM in DMSO) to a final concentration of 100 μM in water. Serial dilutions with water were subsequently made in order to determine IC50 values.
Reaction mixtures were prepared comprising buffer R (10 μL), inhibitor or control (10 μL), and water (75 μL).
A reaction mixture was pre-incubated at 30 deg C. for 5 minutes. A membrane preparation (e.g. 5 μL for type V Adenylyl Cyclase comprising 2 μg of membrane protein per 5 μL of preparation) was added and the mixture was incubated at 30 deg C. for 15 minutes. The reaction was stopped by addition of 0.1 M hydrochloric acid (100 μL) and cooled to 0 deg C. The resulting mixture was incubated at 0 deg C. for 60 minutes. The cAMP concentration of the supernatant was measured using a Cyclic AMP Competitive ELISA kit purchased from ThermoFischer Scientific.
On the technique in general: An ELISA detects its analyte on a solid surface through an enzyme-linked reagent.

Assay [4] concerns H9c2(2-1) myoblast cell line. As to the kind of experiment: Adenylyl cyclase cell-based assay, forskolin-stimulated cAMP. Conditions: Rattus norvegicus; H9c2 cells, forskolin 50 μM. The protocol:
as §1

Assay [5] has as its target T2, type VI adenylyl cyclase (Homo sapiens, UniProt O43306).
T2 construct: from tissue; host or cells: heart (cardiomyocyte) membrane preparations from transgenic mice overproducing type VI adenylyl cyclase
As to the kind of experiment: Adenylyl cyclase membrane assay, type VI (cAMP ELISA). The format is biochemical, mouse. Conditions: cardiomyocyte membrane preparations from transgenic mice; forskolin 50 μM. The protocol: as §2, §3, §4
Hearts were surgically excised from transgenic mice. Each isolated heart was treated with 3-4 mL of buffer A and cooled to 0 deg C. for 5 minutes. Treated hearts were homogenized for 10 seconds using a Polytron homogenizer cooled to 0 deg C. and set to speed 6. Homogenized hearts were centrifuged at 500×g at 4 deg C. for 10 minutes. Supernatants were transferred to ultracentrifuge tubes and centrifuged at 35,000 rpm at 4 deg C. for 40 minutes. Isolated pellets were combined with buffer B (500 μL) and sonicated to a suspension. Protein concentration was determined using a commercial Bradford assay kit. Membrane preparations were stored at −80 deg C. […]
(§5) A reaction mixture was pre-incubated at 30 deg C. for 5 minutes. […] The cAMP concentration of the supernatant was measured using a Cyclic AMP Competitive ELISA kit purchased from ThermoFischer Scientific.

Assay [6] has as its target T3, type II adenylyl cyclase (Homo sapiens, UniProt Q08462).
T3 construct: from tissue; host or cells: heart (cardiomyocyte) membrane preparations from transgenic mice overproducing type II adenylyl cyclase
The assay is described as follows: Adenylyl cyclase membrane assay, type II (cAMP ELISA). The format is biochemical, mouse. Conditions: cardiomyocyte membrane preparations from transgenic mice; forskolin 50 μM. The protocol:
as §2, §3, §4
Hearts were surgically excised from transgenic mice. Each isolated heart was treated with 3-4 mL of buffer A and cooled to 0 deg C. for 5 minutes. […] Protein concentration was determined using a commercial Bradford assay kit. […]
as §5

Broadly, the IC50 is the point on the concentration scale where inhibition reaches its midpoint. Low readings indicate higher potency, high ones lower potency.

T1 sequence (O95622 whole entry): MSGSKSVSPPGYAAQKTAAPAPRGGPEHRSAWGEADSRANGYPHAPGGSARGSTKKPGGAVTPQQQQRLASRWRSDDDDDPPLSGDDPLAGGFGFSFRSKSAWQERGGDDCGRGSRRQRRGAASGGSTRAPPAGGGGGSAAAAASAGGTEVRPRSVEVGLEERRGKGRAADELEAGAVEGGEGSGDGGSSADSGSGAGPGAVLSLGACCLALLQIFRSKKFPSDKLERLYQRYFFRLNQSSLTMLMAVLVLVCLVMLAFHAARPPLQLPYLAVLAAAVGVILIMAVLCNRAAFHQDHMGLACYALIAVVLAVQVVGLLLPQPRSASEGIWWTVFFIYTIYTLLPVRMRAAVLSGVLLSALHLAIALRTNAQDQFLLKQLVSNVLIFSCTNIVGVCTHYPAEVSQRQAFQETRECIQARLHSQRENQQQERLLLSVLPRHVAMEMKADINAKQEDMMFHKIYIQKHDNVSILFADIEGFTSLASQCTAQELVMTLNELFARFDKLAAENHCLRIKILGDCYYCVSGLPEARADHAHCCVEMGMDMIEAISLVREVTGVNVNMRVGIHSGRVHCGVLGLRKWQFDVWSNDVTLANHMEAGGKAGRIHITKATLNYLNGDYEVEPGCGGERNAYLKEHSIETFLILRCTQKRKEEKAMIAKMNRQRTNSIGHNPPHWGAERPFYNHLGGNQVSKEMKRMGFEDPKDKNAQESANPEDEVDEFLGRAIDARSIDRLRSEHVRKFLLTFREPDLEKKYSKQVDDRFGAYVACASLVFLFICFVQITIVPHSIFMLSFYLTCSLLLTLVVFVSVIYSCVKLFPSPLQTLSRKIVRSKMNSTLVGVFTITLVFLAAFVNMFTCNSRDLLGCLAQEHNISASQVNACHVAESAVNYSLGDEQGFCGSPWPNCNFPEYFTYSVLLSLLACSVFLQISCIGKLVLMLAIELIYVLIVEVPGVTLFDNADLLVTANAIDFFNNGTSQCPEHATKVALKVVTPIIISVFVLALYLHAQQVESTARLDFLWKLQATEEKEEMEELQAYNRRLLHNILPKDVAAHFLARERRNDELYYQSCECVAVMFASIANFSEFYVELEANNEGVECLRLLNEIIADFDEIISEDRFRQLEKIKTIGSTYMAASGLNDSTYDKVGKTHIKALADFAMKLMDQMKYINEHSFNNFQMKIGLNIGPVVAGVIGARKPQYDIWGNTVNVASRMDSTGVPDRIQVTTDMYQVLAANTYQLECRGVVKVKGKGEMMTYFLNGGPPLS
T2 sequence (O43306 whole entry): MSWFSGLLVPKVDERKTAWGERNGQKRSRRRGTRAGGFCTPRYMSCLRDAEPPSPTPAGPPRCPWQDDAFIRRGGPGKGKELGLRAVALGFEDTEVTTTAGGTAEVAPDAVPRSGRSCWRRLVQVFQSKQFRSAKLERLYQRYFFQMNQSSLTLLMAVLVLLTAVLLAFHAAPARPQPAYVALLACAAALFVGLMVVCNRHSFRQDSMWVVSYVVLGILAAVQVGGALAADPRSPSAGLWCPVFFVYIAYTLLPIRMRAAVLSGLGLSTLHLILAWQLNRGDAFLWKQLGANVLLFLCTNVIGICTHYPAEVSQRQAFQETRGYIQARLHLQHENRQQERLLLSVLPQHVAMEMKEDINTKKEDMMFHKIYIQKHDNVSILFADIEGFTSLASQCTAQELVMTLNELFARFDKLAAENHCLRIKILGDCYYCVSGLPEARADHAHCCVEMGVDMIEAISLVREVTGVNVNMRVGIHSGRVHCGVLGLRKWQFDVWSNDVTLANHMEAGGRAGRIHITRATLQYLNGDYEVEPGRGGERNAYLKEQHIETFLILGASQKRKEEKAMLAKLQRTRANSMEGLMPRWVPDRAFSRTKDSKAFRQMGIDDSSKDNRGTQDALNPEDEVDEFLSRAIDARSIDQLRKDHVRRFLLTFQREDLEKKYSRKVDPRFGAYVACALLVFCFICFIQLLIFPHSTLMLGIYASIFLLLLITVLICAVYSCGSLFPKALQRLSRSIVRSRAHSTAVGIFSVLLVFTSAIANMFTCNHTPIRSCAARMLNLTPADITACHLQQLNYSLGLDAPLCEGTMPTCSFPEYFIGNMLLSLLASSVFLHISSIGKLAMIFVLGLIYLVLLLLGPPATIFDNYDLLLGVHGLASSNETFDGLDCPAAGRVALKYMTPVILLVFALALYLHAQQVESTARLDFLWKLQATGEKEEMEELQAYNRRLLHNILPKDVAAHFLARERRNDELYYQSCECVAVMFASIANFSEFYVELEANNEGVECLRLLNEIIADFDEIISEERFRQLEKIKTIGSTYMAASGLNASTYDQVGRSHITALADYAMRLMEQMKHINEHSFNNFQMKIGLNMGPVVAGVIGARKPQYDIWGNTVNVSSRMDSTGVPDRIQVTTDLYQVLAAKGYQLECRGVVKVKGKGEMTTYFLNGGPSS
T3 sequence (Q08462 whole entry): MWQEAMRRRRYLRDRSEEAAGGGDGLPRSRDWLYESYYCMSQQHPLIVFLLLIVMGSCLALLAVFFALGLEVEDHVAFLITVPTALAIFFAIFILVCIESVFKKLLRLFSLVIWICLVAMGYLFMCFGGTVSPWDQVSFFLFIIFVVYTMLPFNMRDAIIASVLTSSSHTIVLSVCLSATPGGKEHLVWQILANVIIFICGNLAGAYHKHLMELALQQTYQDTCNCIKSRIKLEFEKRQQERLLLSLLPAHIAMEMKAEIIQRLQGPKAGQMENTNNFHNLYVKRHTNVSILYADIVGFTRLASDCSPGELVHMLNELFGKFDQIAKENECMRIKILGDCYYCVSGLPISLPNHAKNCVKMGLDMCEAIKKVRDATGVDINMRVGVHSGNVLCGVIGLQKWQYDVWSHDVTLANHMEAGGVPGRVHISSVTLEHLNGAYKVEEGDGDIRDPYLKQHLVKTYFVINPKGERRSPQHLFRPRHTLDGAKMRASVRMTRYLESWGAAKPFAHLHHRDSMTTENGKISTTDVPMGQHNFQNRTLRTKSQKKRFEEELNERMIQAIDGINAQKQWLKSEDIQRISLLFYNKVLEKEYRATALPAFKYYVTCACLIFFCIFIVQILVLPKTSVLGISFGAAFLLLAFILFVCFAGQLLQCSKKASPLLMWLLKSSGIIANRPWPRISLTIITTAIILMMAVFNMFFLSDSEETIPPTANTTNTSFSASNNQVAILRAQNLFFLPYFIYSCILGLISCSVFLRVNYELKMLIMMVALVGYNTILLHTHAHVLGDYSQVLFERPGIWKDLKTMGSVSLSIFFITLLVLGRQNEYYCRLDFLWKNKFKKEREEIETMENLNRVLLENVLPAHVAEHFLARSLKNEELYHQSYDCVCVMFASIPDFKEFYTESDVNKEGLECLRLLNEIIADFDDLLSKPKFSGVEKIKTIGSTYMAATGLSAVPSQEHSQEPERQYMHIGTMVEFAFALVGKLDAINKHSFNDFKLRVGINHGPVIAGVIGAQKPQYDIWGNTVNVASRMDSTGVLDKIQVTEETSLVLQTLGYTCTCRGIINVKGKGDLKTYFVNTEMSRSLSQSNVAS

Turning to `Nc1ncnc2c1ncn2[C@@H]1CC[C@@H](C(=O)NO)C1` [Compound 10, (1R,3R)-3-(6-amino-9H-purin-9-yl)-N-hydroxycyclopentanecarboxamide], the IC50 was determined as 27 µM in assay [1], 0.15 µM in assay [3], 9.63 µM in assay [4] and 0.25 µM in assay [5]. In addition, in assay [2], the “left ventricle (LV) infarct size” value was 20%. Regarding `C[C@H]1C[C@@H](n2cnc3c(N)ncnc32)C[C@@H]1C(=O)NO` [Compound 10s, (1S,2S,4R)-4-(6-amino-9H-purin-9-yl)-N-hydroxy-2-methylcyclopentanecarboxamide], the IC50 in assay [3] came out at 0.51 µM. On the same count and under the same terms, next, `Nc1nc(C(F)(F)F)nc2c1ncn2[C@@H]1CC[C@@H](C(=O)NO)C1` [Compound 10l, (1R,3R)-3-(6-amino-2-(trifluoromethyl)-9H-purin-9-yl)-N-hydroxycyclopentanecarboxamide]: 6.45 µM; `Nc1nccc2c1ncn2[C@@H]1CC[C@@H](C(=O)O)C1` [Compound 10a, (1R,3R)-3-(4-amino-1H-imidazo[4,5-c]pyridin-1-yl)cyclopentanecarboxylic acid]: over 10 µM; `Cc1nc(N)c2ncn([C@@H]3CC[C@@H](C(=O)NO)C3)c2n1` [Compound 10k, (1R,3R)-3-(6-amino-2-methyl-9H-purin-9-yl)-N-hydroxycyclopentanecarboxamide]: 4.89 µM.

In assay [3], `Nc1nccc2c1ccn2[C@@H]1CC[C@@H](C(=O)O)C1` [Compound 10e, (1R,3R)-3-(4-amino-1H-pyrrolo[3,2-c]pyridin-1-yl)cyclopentanecarboxylic acid] had an IC50 of over 10 µM. Regarding `Nc1ncnc2c1ncn2[C@@H]1O[C@H](CO)[C@@H](O)[C@H]1O` [adenosine, Adenosine, reference compound], in assay [2], the “left ventricle (LV) infarct size” value amounted to 38%. With `Nc1ncnc2c1ccn2[C@@H]1CC[C@@H](C(=O)NO)C1` [Compound 10d, (1R,3R)-3-(4-amino-7H-pyrrolo[2,3-d]pyrimidin-7-yl)-N-hydroxycyclopentanecarboxamide], it took 0.98 µM to reach half-maximal inhibition in assay [3] (IC50). This counts as sub-micromolar.

`Nc1nc(F)nc2c1ncn2[C@@H]1CC[C@@H](C(=O)NO)C1` [Compound 10j, (1R,3R)-3-(6-amino-2-fluoro-9H-purin-9-yl)-N-hydroxycyclopentanecarboxamide]: the IC50 was determined as 5.58 µM in assay [6]; 2.45 µM in assay [1]; 0.08 µM in assay [3]; 2.32 µM in assay [4]; 0.21 µM in assay [5]. For `Nc1ncnc2c1ncn2[C@@H]1C[C@H](CO)[C@@H](C(=O)NO)C1` [Compound 10h, (1S,2S,4R)-4-(6-amino-9H-purin-9-yl)-N-hydroxy-2-(hydroxymethyl)cyclopentanecarboxamide], the IC50 in assay [3] came to 1.9 µM; in assay [4] it was 18 µM.

In assay [3], `C[C@H]1C[C@@H](n2cnc3c(N)nc(F)nc32)C[C@@H]1C(=O)NO` [Compound 10t] showed an IC50 of 0.13 µM. Still for that read-out and setting: next, `Nc1ncnc2c1nc(C(F)(F)F)n2[C@@H]1CC[C@@H](C(=O)NO)C1` [Compound 10p, (1R,3R)-3-(6-amino-8-(trifluoromethyl)-9H-purin-9-yl)-N-hydroxycyclopentanecarboxamide]: over 300 µM. For `Nc1nccc2c1ncn2[C@@H]1CC[C@@H](C(=O)NO)C1` [Compound 10b, (1R,3R)-3-(4-amino-1H-imidazo[4,5-c]pyridin-1-yl)-N-hydroxycyclopentanecarboxamide], the IC50 came out at 0.29 µM in assay [3] and 8.5 µM in assay [4]. Regarding `Nc1nc(N)c2ncn([C@@H]3CC[C@@H](C(=O)NO)C3)c2n1` [Compound 10m, (1R,3R)-3-(2,6-diamino-9H-purin-9-yl)-N-hydroxycyclopentanecarboxamide], half-maximal inhibition in assay [3] (IC50) was put at 3.5 µM. On the same count and under the same terms, next, `Nc1ncnc2c1ncn2[C@@H]1C[C@@H](CO)[C@@H](C(=O)NO)C1` [Compound 10i, (1S,2R,4R)-4-(6-amino-9H-purin-9-yl)-N-hydroxy-2-(hydroxymethyl)cyclopentanecarboxamide]: 3.1 µM; `Nc1ncnc2c1ncn2[C@@H]1C[C@H](CO)[C@@H](C(=O)O)C1` [Compound 10g, (1S,2S,4R)-4-(6-amino-9H-purin-9-yl)-2-(hydroxymethyl)cyclopentanecarboxylic acid]: over 100 µM. Same read-out and setting: in the case of `Nc1nc(O)nc2c1ncn2[C@@H]1CC[C@@H](C(=O)NO)C1` [Compound 10n, (1R,3R)-3-(6-amino-2-hydroxy-9H-purin-9-yl)-N-hydroxycyclopentanecarboxamide] it was over 300 µM; in that of `Nc1ncnc2c1ccn2[C@@H]1CC[C@@H](C(=O)O)C1` [Compound 10c, (1R,3R)-3-(4-amino-7H-pyrrolo[2,3-d]pyrimidin-7-yl)cyclopentanecarboxylic acid], over 100 µM.

Compound `Nc1ncnc2c1nc(N)n2[C@@H]1CC[C@@H](C(=O)NO)C1` [Compound 10q, (1R,3R)-3-(6,8-diamino-9H-purin-9-yl)-N-hydroxycyclopentanecarboxamide] returned an IC50 in assay [3] of over 300 µM. Consider `Cc1nc2c(N)ncnc2n1[C@@H]1CC[C@@H](C(=O)NO)C1` [Compound 10o, (1R,3R)-3-(6-amino-8-methyl-9H-purin-9-yl)-N-hydroxycyclopentanecarboxamide], for which, in assay [3], the IC50 was over 300 µM. On the same count and under the same terms, next, `Nc1ncnc2c1nc(O)n2[C@@H]1CC[C@@H](C(=O)NO)C1` [Compound 10r, (1R,3R)-3-(6-amino-8-hydroxy-9H-purin-9-yl)-N-hydroxycyclopentanecarboxamide]: over 300 µM.
